Measured values from ChEMBL document CHEMBL5370641, “Structure-Based Optimization and Biological Evaluation of Potent and Selective MMP-7 Inhibitors for Kidney Fibrosis” (J Med Chem, 2023).
pIC50: −log10 of the molar value. Numbered stars: 1 amine (or outer) side, 2 acyl side, 3 side chain; on linkers, the order of the positions; unused ones are H or OH. Square brackets hold non-standard residues; d marks the D form. Peptide text beside a SMILES is read from it. * marks the point of attachment. Benzenesulfonyl(4-Cl,3-CF3) = O=S(=O)(c1ccc(Cl)c(C(F)(F)F)c1)*; Ala(4-Pyridazinyl) = N[C@@H](Cc1ccnnc1)C(=O)O; Ala(4-thiazolyl) = N[C@@H](Cc1cscn1)C(=O)O; Phe(3-I) = N[C@@H](Cc1cccc(I)c1)C(=O)O; γGlu = O=C(O)[C@H](CCC(=O)[*:2])N[*:1]; hPhe = N[C@@H](CCc1ccccc1)C(=O)O; 3Pal = N[C@@H](Cc1cccnc1)C(=O)O; Tle = CC(C)(C)[C@H](N)C(=O)O; β3hP = O=C(O)C[C@@H]1CCCN1

Experiments:
[1] = molecular target: 72 kDa type IV collagenase (Homo sapiens, UniProt P08253); assay: Inhibition of recombinant human MMP2 using MOCAc-Pro-Leu-Gly-Leu-A2pr-(Dnp)-Ala-Arg-NH2 as substrate preincubated with compound for 15 mins followed by substrate addition and measured after 1 hrs by fluorescence based analysis
Homo sapiens [2] = organism: Homo sapiens; assay: Selectivity ratio of IC50 for inhibition of recombinant human MMP13 to IC50 for inhibition of recombinant human MMP7
[3] = molecular target: Matrix metalloproteinase-9 (Homo sapiens, UniProt P14780); assay: Inhibition of recombinant human MMP9 using MOCAc-Pro-Leu-Gly-Leu-A2pr-(Dnp)-Ala-Arg-NH2 as substrate preincubated with compound for 15 mins followed by substrate addition and measured after 1 hrs by fluorescence based analysis
Interstitial collagenase = molecular target: T1, Interstitial collagenase (Homo sapiens, UniProt P03956); assay: Inhibition of recombinant human MMP1 using MOCAc-Lys-Pro-Leu-Gly-Leu-A2pr(Dnp)-Ala-Arg-NH2 as substrate preincubated with compound for 15 mins followed by substrate addition and measured after 1 hrs by fluorescence based analysis
T1 sequence (P03956 whole entry): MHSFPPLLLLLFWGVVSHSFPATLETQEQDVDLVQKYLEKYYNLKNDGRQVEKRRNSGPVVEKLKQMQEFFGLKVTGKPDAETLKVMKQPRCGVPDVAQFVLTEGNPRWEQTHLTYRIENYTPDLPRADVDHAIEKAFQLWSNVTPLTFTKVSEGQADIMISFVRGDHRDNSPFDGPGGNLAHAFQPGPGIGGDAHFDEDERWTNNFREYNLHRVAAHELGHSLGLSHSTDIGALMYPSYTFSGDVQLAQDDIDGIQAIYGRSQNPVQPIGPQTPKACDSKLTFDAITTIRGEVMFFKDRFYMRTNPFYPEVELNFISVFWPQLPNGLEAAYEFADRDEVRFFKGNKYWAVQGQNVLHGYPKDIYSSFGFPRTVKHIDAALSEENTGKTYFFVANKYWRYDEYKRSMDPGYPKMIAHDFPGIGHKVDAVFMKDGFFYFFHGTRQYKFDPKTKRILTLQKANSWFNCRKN

Homo sapiens [4] = organism: Homo sapiens; assay: Selectivity ratio of IC50 for inhibition of recombinant human MMP9 to IC50 for inhibition of recombinant human MMP7
Homo sapiens [5] = organism: Homo sapiens; assay: Selectivity ratio of IC50 for inhibition of recombinant human MMP1 to IC50 for inhibition of recombinant human MMP7
[6] = molecular target: Matrix metalloproteinase-14 (Homo sapiens, UniProt P50281); assay: Inhibition of recombinant human MMP14 using MOCAc-Lys-Pro-Leu-Gly-Leu-A2pr(Dnp)-Ala-Arg-NH2 as substrate preincubated with compound for 15 mins followed by substrate addition and measured after 1 hrs by fluorescence based analysis
Homo sapiens [7] = organism: Homo sapiens; assay: Selectivity ratio of IC50 for inhibition of recombinant human MMP2 to IC50 for inhibition of recombinant human MMP7
Homo sapiens [8] = organism: Homo sapiens; assay: Selectivity ratio of IC50 for inhibition of recombinant human MMP3 to IC50 for inhibition of recombinant human MMP7
Homo sapiens [9] = organism: Homo sapiens; assay: Selectivity ratio of IC50 for inhibition of recombinant human MMP12 to IC50 for inhibition of recombinant human MMP7
Homo sapiens [10] = organism: Homo sapiens; assay: Selectivity ratio of IC50 for inhibition of recombinant human MMP14 to IC50 for inhibition of recombinant human MMP7
Neutrophil collagenase = Neutrophil collagenase (Homo sapiens, UniProt P22894); assay: Inhibition of recombinant human MMP8 using MOCAc-Pro-Leu-Gly-Leu-A2pr-(Dnp)-Ala-Arg-NH2 as substrate preincubated with compound for 15 mins followed by substrate addition and measured after 1 hrs by fluorescence based analysis
[11] = molecular target: Macrophage metalloelastase (Homo sapiens, UniProt P39900); assay: Inhibition of recombinant human MMP12 using MOCAc-Pro-Leu-Gly-Leu-A2pr-(Dnp)-Ala-Arg-NH2 as substrate preincubated with compound for 15 mins followed by substrate addition and measured after 1 hrs by fluorescence based analysis
Collagenase 3 = Collagenase 3 (Homo sapiens, UniProt P45452); assay: Inhibition of recombinant human MMP13 using MOCAc-Pro-Leu-Gly-Leu-A2pr-(Dnp)-Ala-Arg-NH2 as substrate preincubated with compound for 15 mins followed by substrate addition and measured after 1 hrs by fluorescence based analysis
Homo sapiens [12] = organism: Homo sapiens; assay: Selectivity ratio of IC50 for inhibition of recombinant human MMP8 to IC50 for inhibition of recombinant human MMP7
Matrilysin = molecular target: T2, Matrilysin (Homo sapiens, UniProt P09237); assay: Inhibition of recombinant human MMP7 using MOCAc-Pro-Leu-Gly-Leu-A2pr-(Dnp)-Ala-Arg-NH2 as substrate preincubated with compound for 15 mins followed by substrate addition and measured after 2 hrs by fluorescence based analysis
T2 sequence (P09237 whole entry): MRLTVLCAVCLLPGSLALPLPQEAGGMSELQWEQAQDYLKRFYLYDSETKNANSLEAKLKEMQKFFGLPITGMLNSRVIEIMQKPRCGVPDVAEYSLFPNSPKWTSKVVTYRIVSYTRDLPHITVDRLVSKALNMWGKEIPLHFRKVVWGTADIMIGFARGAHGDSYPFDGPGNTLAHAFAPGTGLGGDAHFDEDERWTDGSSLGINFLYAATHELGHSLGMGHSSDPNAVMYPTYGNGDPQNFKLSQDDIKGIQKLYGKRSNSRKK

Stromelysin-1 = Stromelysin-1 (Homo sapiens, UniProt P08254); assay: Inhibition of recombinant human MMP3 using MOCAc-Arg-Pro-Lys-Pro-Val-Glu-Nva-Trp-Arg-Lys(Dnp)-NH2 as substrate preincubated with compound for 15 mins followed by substrate addition and measured after 1 hrs by fluorescence based analysis
Chain of Stromelysin-1 (P08254 whole entry): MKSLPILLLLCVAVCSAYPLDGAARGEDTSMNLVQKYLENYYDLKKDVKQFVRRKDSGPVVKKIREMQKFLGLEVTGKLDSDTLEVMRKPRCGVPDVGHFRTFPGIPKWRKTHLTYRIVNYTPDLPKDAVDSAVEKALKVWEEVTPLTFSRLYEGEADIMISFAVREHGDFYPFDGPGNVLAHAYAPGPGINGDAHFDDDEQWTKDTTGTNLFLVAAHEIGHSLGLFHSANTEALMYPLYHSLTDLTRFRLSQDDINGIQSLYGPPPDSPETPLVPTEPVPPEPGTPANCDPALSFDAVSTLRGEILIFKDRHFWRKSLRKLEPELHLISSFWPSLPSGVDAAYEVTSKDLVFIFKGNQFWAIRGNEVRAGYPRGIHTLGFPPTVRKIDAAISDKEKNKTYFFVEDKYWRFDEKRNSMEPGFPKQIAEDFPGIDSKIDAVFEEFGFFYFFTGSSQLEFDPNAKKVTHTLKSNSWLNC

Chain of 72 kDa type IV collagenase (P08253 whole entry): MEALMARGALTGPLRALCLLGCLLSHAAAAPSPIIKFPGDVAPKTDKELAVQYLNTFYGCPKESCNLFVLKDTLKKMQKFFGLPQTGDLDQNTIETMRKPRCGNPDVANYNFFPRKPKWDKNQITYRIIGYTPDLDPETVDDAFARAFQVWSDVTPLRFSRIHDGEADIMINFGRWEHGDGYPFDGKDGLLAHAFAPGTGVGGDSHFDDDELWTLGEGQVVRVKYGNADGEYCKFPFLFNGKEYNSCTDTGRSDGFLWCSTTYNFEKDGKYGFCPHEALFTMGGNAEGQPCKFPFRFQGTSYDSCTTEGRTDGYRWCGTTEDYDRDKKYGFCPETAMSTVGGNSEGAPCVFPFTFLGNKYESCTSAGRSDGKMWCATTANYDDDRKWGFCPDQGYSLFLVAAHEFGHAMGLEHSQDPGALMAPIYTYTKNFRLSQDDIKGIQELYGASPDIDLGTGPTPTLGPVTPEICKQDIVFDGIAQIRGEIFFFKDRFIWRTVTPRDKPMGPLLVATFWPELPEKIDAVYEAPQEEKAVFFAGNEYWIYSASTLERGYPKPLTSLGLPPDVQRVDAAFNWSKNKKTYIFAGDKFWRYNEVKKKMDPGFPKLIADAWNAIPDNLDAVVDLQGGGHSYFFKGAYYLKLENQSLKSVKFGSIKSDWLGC
Chain of Neutrophil collagenase (P22894 whole entry): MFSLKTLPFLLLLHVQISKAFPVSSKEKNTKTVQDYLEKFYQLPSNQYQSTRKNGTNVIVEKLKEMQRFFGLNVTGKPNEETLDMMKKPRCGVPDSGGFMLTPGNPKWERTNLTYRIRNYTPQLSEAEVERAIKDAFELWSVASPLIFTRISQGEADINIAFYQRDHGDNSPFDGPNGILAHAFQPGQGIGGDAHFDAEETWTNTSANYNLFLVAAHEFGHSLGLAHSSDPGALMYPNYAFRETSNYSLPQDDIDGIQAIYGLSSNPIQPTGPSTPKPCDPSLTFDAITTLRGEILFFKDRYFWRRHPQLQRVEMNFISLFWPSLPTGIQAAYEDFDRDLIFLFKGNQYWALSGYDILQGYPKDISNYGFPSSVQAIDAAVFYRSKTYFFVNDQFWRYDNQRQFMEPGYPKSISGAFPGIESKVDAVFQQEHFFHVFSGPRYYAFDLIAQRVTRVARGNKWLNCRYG
Chain of Matrix metalloproteinase-9 (P14780 whole entry): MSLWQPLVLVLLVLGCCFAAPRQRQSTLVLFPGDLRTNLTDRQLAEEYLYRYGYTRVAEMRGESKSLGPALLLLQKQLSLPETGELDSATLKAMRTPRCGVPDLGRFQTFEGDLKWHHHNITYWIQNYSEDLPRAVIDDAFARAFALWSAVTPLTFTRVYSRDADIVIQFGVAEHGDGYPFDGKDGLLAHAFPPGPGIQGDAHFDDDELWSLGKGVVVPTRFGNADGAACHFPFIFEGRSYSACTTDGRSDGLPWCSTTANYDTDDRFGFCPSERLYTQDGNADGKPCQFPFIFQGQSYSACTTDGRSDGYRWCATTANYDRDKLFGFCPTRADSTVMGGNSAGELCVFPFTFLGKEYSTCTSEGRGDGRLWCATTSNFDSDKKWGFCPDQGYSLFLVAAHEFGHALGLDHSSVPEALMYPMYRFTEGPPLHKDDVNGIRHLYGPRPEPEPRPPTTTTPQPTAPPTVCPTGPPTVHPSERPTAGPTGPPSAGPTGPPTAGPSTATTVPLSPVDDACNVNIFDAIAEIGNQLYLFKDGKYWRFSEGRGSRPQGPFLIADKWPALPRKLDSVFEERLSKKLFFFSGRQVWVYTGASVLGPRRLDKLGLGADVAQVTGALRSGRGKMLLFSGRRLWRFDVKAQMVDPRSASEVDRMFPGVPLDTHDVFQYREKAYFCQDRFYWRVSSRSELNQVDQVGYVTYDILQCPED
Chain of Macrophage metalloelastase (P39900 whole entry): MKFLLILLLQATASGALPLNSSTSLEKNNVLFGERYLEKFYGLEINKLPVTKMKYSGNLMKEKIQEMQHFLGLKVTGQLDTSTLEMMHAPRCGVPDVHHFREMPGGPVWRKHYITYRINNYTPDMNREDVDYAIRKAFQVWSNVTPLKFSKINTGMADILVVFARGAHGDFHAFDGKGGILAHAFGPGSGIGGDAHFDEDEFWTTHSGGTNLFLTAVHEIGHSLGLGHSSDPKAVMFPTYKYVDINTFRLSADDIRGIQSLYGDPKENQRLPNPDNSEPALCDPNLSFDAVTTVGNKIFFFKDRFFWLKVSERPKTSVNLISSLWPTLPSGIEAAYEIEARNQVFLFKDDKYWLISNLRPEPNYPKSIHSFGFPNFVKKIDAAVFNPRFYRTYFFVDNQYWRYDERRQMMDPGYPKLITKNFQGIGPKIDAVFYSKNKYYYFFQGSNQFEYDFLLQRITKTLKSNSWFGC

Row | Structure (SMILES) | pIC50 [6] | pIC50 (Matrilysin) | further results
1 | CC(C)(C)[C@H](NC(=O)[C@H](Cn1ccnn1)NC(=O)CNC(=O)CC[C@H](NS(=O)(=O)c1ccc(Cl)c(C(F)(F)F)c1)C(=O)O)C(=O)N1CCC[C@H]1CC(N)=O | 5.08 | 7.49 | –
2 | CC(C)(C)[C@H](NC(=O)[C@H](Cc1cccnn1)NC(=O)CNC(=O)CC[C@H](NS(=O)(=O)c1ccc(Cl)c(C(F)(F)F)c1)C(=O)O)C(=O)N1CCC[C@H]1CC(N)=O | 5.08 | 8.22 | –
3 | CC(C)(C)[C@H](NC(=O)[C@H](Cc1cccc(I)c1)NC(=O)CNC(=O)CC[C@H](NS(=O)(=O)c1ccc(Cl)c(C(F)(F)F)c1)C(=O)O)C(=O)N1CCC[C@H]1CC(N)=O ({Benzenesulfonyl(4-Cl,3-CF3)-γGlu}-G[Phe(3-I)][Tle][β3hP]-NH2) | 5.51 | 7.92 | –
4 | CC(C)(C)[C@H](NC(=O)[C@H](CCc1ccccc1)NC(=O)CNC(=O)CC[C@H](NS(=O)(=O)c1ccc(Cl)c(C(F)(F)F)c1)C(=O)O)C(=O)N1CCC[C@H]1CC(N)=O ({Benzenesulfonyl(4-Cl,3-CF3)-γGlu}-G[hPhe][Tle][β3hP]-NH2) | 5.35 | 7.10 | –
5 | CC(C)(C)[C@H](NC(=O)[C@H](Cc1ccc(O)cc1)NC(=O)CNC(=O)CC[C@H](NS(=O)(=O)c1ccc(Cl)c(C(F)(F)F)c1)C(=O)O)C(=O)N1CCC[C@H]1CC(N)=O ({Benzenesulfonyl(4-Cl,3-CF3)-γGlu}-GY[Tle][β3hP]-NH2) | 5.57 | 8.02 | –

Now from value to compound, other results behind:

Row | pIC50 [6] | pIC50 (Matrilysin) | Structure (SMILES) | further results
6 | 6.62 | 8.11 | CC(C)C[C@H](NC(=O)CNC(=O)CC[C@H](NS(=O)(=O)c1ccc(Cl)c(C(F)(F)F)c1)C(=O)O)C(=O)N[C@H](C(=O)N1CCC[C@H]1CC(N)=O)C(C)(C)C ({Benzenesulfonyl(4-Cl,3-CF3)-γGlu}-GL[Tle][β3hP]-NH2) | pIC50 [1]: 5.07; Ratio IC50 (Homo sapiens [2]): > 13000; pIC50 [3]: < 4.00; pIC50 (Interstitial collagenase): 4.04; Ratio IC50 (Homo sapiens [4]): > 13000; Ratio IC50 (Homo sapiens [5]): 12000; Ratio IC50 (Homo sapiens [7]): 1100; Ratio IC50 (Homo sapiens [8]): > 13000; Ratio IC50 (Homo sapiens [9]): 380; Ratio IC50 (Homo sapiens [10]): 31; pIC50 (Neutrophil collagenase): 4.26; pIC50 [11]: 5.54; pIC50 (Collagenase 3): < 4.00; Ratio IC50 (Homo sapiens [12]): 7100; pIC50 (Stromelysin-1): < 4.00
7 | 5.57 | 8.77 | CC(C)(C)[C@H](NC(=O)[C@H](Cc1cccnc1)NC(=O)CNC(=O)CC[C@H](NS(=O)(=O)c1ccc(Cl)c(C(F)(F)F)c1)C(=O)O)C(=O)N1CCC[C@H]1CC(N)=O ({Benzenesulfonyl(4-Cl,3-CF3)-γGlu}-G[3Pal][Tle][β3hP]-NH2) | –
8 | 5.85 | 8.55 | CC(C)(C)[C@H](NC(=O)[C@H](Cc1ccnnc1)NC(=O)CNC(=O)CC[C@H](NS(=O)(=O)c1ccc(Cl)c(C(F)(F)F)c1)C(=O)O)C(=O)N1CCC[C@H]1CC(N)=O ({Benzenesulfonyl(4-Cl,3-CF3)-γGlu}-G[Ala(4-Pyridazinyl)][Tle][β3hP]-NH2) | –
9 | 6.03 | 8.42 | CC(C)(C)[C@H](NC(=O)[C@H](Cc1cscn1)NC(=O)CNC(=O)CC[C@H](NS(=O)(=O)c1ccc(Cl)c(C(F)(F)F)c1)C(=O)O)C(=O)N1CCC[C@H]1CC(N)=O ({Benzenesulfonyl(4-Cl,3-CF3)-γGlu}-G[Ala(4-thiazolyl)][Tle][β3hP]-NH2) | –
10 | 5.70 | 7.85 | COc1ccc(C[C@H](NC(=O)CNC(=O)CC[C@H](NS(=O)(=O)c2ccc(Cl)c(C(F)(F)F)c2)C(=O)O)C(=O)N[C@H](C(=O)N2CCC[C@H]2CC(N)=O)C(C)(C)C)cc1 ({Benzenesulfonyl(4-Cl,3-CF3)-γGlu}-GY(Me)[Tle][β3hP]-NH2) | –
